Legend:
CHO cells = assay: Study of metabolism in vitro in CHO cells, steroids in culture medium by GC/MS
How it was run: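 CHO-K1 cells were seeded at 25×10^4 cells/well in antibiotic-free DMEM-Glutamax with 10% FBS to assess metabolism of pregnenolone derivatives. Pregnenolone, allopregnanolone, epiallopregnanolone, testosterone and 5α-dihydrotestosterone in culture medium were extracted, purified and quantified by GC/MS.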

human CB1 receptor = target: T1, human CB1 receptor (Homo sapiens, UniProt P21554); assay: Radioligand binding of the CB1 agonist [3H]CP55,940 in CHO cells; conditions: pregnenolone 10^-12 to 10^-4 M
T1 construct: host or cells: CHO cells
T1 sequence (P21554 whole entry): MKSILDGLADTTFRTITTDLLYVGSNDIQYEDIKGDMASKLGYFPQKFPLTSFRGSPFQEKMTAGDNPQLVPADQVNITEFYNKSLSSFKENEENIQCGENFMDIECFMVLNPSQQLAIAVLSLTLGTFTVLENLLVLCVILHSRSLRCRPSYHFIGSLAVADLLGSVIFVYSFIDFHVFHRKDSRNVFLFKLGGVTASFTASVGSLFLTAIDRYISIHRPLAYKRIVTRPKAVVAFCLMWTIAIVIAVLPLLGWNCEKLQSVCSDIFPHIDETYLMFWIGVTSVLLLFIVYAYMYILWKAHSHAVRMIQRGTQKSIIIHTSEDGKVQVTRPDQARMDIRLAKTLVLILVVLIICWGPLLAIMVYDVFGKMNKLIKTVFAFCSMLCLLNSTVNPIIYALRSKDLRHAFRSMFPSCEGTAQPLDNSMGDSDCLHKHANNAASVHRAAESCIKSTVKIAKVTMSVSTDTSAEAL
Protocol: The binding assay for orthosteric binding of pregnenolone has been evaluated using Chinese hamster ovary (CHO) cells expressing the human CB1 receptor.
The CB1 binding of pregnenolone has been evaluated by the affinity of pregnenolone for the agonist site of the human CB1 cannabinoid receptor expressed in CHO cells, determined in a radioligand binding assay of the CB1 agonist [3H] CP 55940. The experiments were performed by CEREP France, using the standard procedures of this provider.

[1] = Allopregnanolone and epiallopregnanolone in nucleus accumbens after high dose injection (GC/MS); type: in vivo, Wistar rats; conditions: 50 mg/kg; 30 min after the injections
Protocol: The capacity of a compound of the invention to be or not to be converted into active pregnenolone downstream derivatives may be evaluated by administering this compound, for example by injecting 50 mg/kg, to a rat, sacrificing the rat 30 min later, measuring the concentration of allopregnanolone and epiallopregnanolone in nucleus accumbens of rat by GC/MS and comparing these concentrations to allopregnanolone and epiallopregnanolone in a rat whose has been injected only a vehicle or pregnenolone.
The concentrations of allopregnanolone and epiallopregnanolone were measured in nucleus accumbens of individual animal by GC/MS 30 min after the injections.

[2] = Elevated plus maze, anxiety-like behaviors; type: in vivo, mice; conditions: sc, 30 min before test; pregnenolone 1, 6, 10 mg/kg; rimonabant 10 mg/kg
Protocol: The elevated plus maze was made by a central platform (10×10 cm) from which departed 4 arms (45×10 cm) at a 90° angle from each other. Two opposite arms, named closed arms had peripheral wall 50 cm high. The two other arms, named open arms had no walls. The maze was suspended at 66 cm from the floor of the room and was brightly lighted (120 lux). The testing consisted in placing the animal in the central platform and the number of entry and the time spent in each compartment of the maze recorded for 5 min. The number of entry and time spent in the open arms are considered and index of anxiety-like behaviors, whilst the total number of entry are and index of locomotor activity.
One of the major side effects of orthosteric antagonists of the CB1 is the induction of behavioral side effect and in particular an axiodepressive state. […] This test has been chosen because an increase in anxiety was the principal undesirable side effect of this compound in humans.

[3] = Plasmatic levels of pregnenolone and allopregnanolone after subcutaneous injection or Alzet minipumps; type: in vivo, mice
Protocol: Micro-osmotic pumps (Alzet Osmotis Pumps, Charles River, France) with a pump rate of 0.15 μl/hr (model 2006) were filled with pregnenolone dissolved in PEG300 (85%) and ethanol (15%) at a concentration of 125 or 250 mg/ml (corresponding respectively to a daily dose of 12 or 24 mg/kg body weight) and implanted subcutaneously after light anesthesia. All pumps were primed by soaking them in saline at 37° C. for 60 h before implantation.
The effects of pregnenolone administration on plasmatic levels of pregnenolone were compared (n=5 per group) when pregnenolone was administered subcutaneously (6 mg/kg) or by Alzet micro-osmotic pumps (Alzet Osmotis Pumps, Charles River, France, model 2006) that simulate an extended release formulations of pregnenolone. Thus, these mini pump implanted subcutaneously provide a steady release of pregnenolone. Two pregneolone concentrations were used 0.6 mg/kg/hour and 1 mg/kg/hour (10 times and six times lower than the dose administered subcutaneously). […] The half life of pregnenolone administered subcutaneously was quite short (half an hour) and the increase in allopregnanolone was maintained over one hour (FIG. 20). […] Also pregnenolone levels remained in the range of effective therapeutic doses over two weeks.

[4] = Brain steroid levels after pregnenolone injections; type: in vivo, C57B1/6 mice; conditions: pregnenolone injections between 2 and 8 mg/kg
Protocol: Data are expressed as mean±SEM (n=7-8 per group). *=P<0.05, ***=P<0.001 compared to vehicle-treated animals (PREG 0 mg/kg).
In this example the inventors studied the effects of the doses of pregnenolone (between 2 and 8 mg/kg) that were able to inhibit the effects of CB1 activation in mice.

[5] = culture medium of treated CHO cells, 0 = concentrations below the detection limit
[6] = culture medium, pregnenolone 1 μM, 48 hours
[7] = Alzet minipump at 0.6 mg/kg/hour

CC(=O)[C@H]1CC[C@H]2[C@@H]3CC=C4C[C@@H](O)CC[C@]4(C)[C@H]3CC[C@]12C [Pregnenolone, 5-Pregnen-3β-ol-20-one]
DHEA (CHO cells; [5]): 0.00 pg/mL
TESTO (CHO cells; [5]): 0.00 pg/mL
ALLO steroid levels (CHO cells; [6]): 3529.99 pg/mL
EPIALLO steroid levels (CHO cells; [6]): 16963.84 pg/mL
PREG steroid levels (CHO cells; [6]): 11440.66 pg/mL
THDOC steroid levels (CHO cells; [6]): 77.47 pg/mL
orthosteric binding of the CB1 agonist [3H]CP55,940 (human CB1 receptor): did not modify the specific binding
orthosteric binding of the CB1 agonist [3H]CP55,940 (human CB1 receptor; listed as pregnenolone): did not displace the orthosteric binding
production of allopregnanolone and epiallopregnanolone in nucleus accumbens [1]: allopregnanolone and epiallopregnanolone increased
anxiety-like behavior (entries and time spent in open arms) [2]: induced no increase in anxiety
plasma allopregnanolone [3, 7]: did not increased allopregnanolone
plasmatic pregnenolone [3, 7]: increased in the range of the maximum increase observed after the subcutaneous injection
plasma allopregnanolone ([3]; Alzet minipump at 1 mg/kg/hour): allopregnanolone did not increase
pregnenolone plasmatic concentrations ([3]; Alzet minipump at 1 mg/kg/hour): at the double of what observed after 6 mg/kg
half life ([3]; administered subcutaneously): half an hour
half-life ([3]; mouse, in vivo): approximately 30 min
plasma allopregnanolone ([3]; pregnenolone subcutaneously at 6 mg/kg): induced an increase in allopregnanolone
duration of the increase in pregnenolone levels ([3]; subcutaneous injection): < 1 h
plasmatic levels of pregnenolone ([3]; subcutaneously at 6 mg/kg): around 100 ng/ml
brain concentrations of downstream metabolites (epiallopregnanolone, allopregnanolone) [4]: did not modify the concentrations of downstream metabolites
brain levels of pregnenolone [4]: increased brain levels of pregnenolone
